Experimental data as given in patent publication US20250163048A1 (Tango Therapeutics, Inc., priority 2022, published 2025).
Read-outs that look alike come from different tables or passages of the source.

What was measured:
[1] = tested on: HAP1 MTAP-deleted cell line; test: SDMA in-cell western assay, HAP1 MTAP-deleted; conditions: for IC50 / IC90: Homo sapiens; for Hap1 MTAP intact/deleted ratio: IC50 ratio between HAP1 MTAP-intact and HAP1 MTAP-deleted cell line
[2] = tested on: HAP1 MTAP-intact cell line; test: SDMA in-cell western assay, HAP1 MTAP-intact; conditions: Homo sapiens
MTAP-deleted cell line = test: viability assay for the MTAP-deleted cell line; assay type: cell-based; conditions: Homo sapiens, HAP1, viability assay
[3] = HAP1, read-out: Hap1 MTAP deleted IC50, SDMA in-cell western, HAP1 MTAP-deleted cell line
[4] = HAP1, read-out: Hap1 MTAP deleted IC90, SDMA in-cell western, HAP1 MTAP-deleted cell line
[5] = HAP1, read-out: Hap1 MTAP intact IC50, SDMA in-cell western, HAP1 MTAP-intact cell line
[6] = HAP1, read-out: Hap1 MTAP deleted IC50, SDMA in-cell western assay, HAP1 MTAP-deleted cell line
[7] = HAP1, read-out: Hap1 MTAP deleted IC90, SDMA in-cell western assay, HAP1 MTAP-deleted cell line
[8] = HAP1, read-out: Hap1 MTAP intact IC50, SDMA in-cell western assay, HAP1 MTAP-intact cell line
[9] = HAP1, read-out: Hap1 MTAP intact IC50

IC50 [1, 3] [nM] | IC90 [1, 4] [nM] | IC50 [2, 5] [nM] | IC50 [1, 6] [nM] | IC90 [1, 7] [nM] | IC50 [2, 8] [nM] | SMILES | Hap1 MTAP intact/deleted ratio ([1]; SDMA in-cell western) | IC50 (MTAP-deleted cell line) [nM] | Hap1 MTAP intact/deleted ratio ([1]; SDMA in-cell western assay) | IC50 [2, 9] [nM]
< 5 | < 75 | > 50 | – | – | – | C[C@H]1CC[C@H](c2ccc3sc([C@H]4CCCN(C)C4)nc3c2)N(C(=O)C(=O)Nc2cncc3c(N)nccc23)C1 (relative stereo) [Compound 10, N-(8-amino-2,7-naphthyridin-4-yl)-2-oxo-2-[(2R,5S)-5-methyl-2-[2-[rel-(3S)-1-methyl-3-piperidyl]-1,3-benzothiazol-5-yl]-1-piperidyl]acetamide] | A (“A” indicates an IC50 ratio greater than or equal to 30 fold) | < 100 | – | –
< 5 | < 75 | 5 to 50 | – | – | – | C[C@H]1CC[C@H](c2ccc3sc(C45CCC(CC4)N(C)C5)nc3c2)N(C(=O)C(=O)Nc2cncc3cn[nH]c23)C1 [Compound 54, 2-((2R,5S)-5-methyl-2-(2-(2-methyl-2-azabicyclo[2.2.2]octan-4-yl)benzo[d]thiazol-5-yl)piperidin-1-yl)-2-oxo-N-(1H-pyrazolo[4,3-c]pyridin-7-yl)acetamide] | B (“B” indicates an IC50 ratio greater than or equal to 15 fold but lower than 30 fold) | < 100 | – | –
– | – | – | < 5 | < 75 | 5 to 50 | C[C@H]1CC[C@H](c2cccc3c2OCC3)N(C(=O)C(=O)Nc2cnc(N)c3cn[nH]c23)C1 (racemic) [Compound 255, N-(4-Amino-1H-pyrazolo[4,3-c]pyridin-7-yl)-2-oxo-2-[rac-(2R,5S)-2-(2,3-dihydrobenzofuran-7-yl)-5-methyl-1-piperidyl]acetamide] | – | < 100 | B (“B” indicates an IC50 ratio greater than or equal to 15 fold but lower than 30 fold) | –
– | – | – | < 5 | < 75 | 5 to 50 | C[C@@H]1CN(C(=O)C(=O)Nc2cnc(N)c3cn[nH]c23)[C@@H](c2ccccc2)CC1(F)F (racemic) [Compound 216, N-(4-Amino-1H-pyrazolo[4,3-c]pyridin-7-yl)-2-oxo-2-[rac-(2R,5R)-4,4-difluoro-5-methyl-2-phenyl-1-piperidyl]acetamide] | – | < 100 | C (“C” indicates an IC50 ratio of less than 15 fold) | –
< 5 | < 75 | > 50 | – | – | – | C[C@H]1CC[C@H](c2ccc3sc([C@@H]4CCN(C)C[C@@H]4C)nc3c2)N(C(=O)C(=O)Nc2cncc3cn[nH]c23)C1 (relative stereo) [Compound 12, 2-oxo-N-(1H-pyrazolo[4,3-c]pyridin-7-yl)-2-[(2R,5S)-5-methyl-2-[2-[rel-(3R,4R)-1,3-dimethyl-4-piperidyl]-1,3-benzothiazol-5-yl]-1-piperidyl]acetamide] | B (“B” indicates an IC50 ratio greater than or equal to 15 fold but lower than 30 fold) | < 100 | – | –
< 5 | < 75 | > 50 | – | – | – | Cc1ncc([C@H]2CC[C@H](C)CN2C(=O)C(=O)Nc2cnc(N)c3cn[nH]c23)cc1Cl [Compound 168] | C (“C” indicates an IC50 ratio of less than 15 fold) | < 100 | – | –
< 5 | < 75 | 5 to 50 | – | – | – | C[C@H]1CC[C@H](c2ccc3nn(C4CC(C)(C)N(C)C(C)(C)C4)cc3c2)N(C(=O)C(=O)Nc2cncc3cn[nH]c23)C1 [Compound 47, 2-oxo-N-(1H-pyrazolo[4,3-c]pyridin-7-yl)-2-[(2R,5S)-5-methyl-2-[2-(1,2,2,6,6-pentamethyl-4-piperidyl)indazol-5-yl]-1-piperidyl]acetamide] | B (“B” indicates an IC50 ratio greater than or equal to 15 fold but lower than 30 fold) | < 100 | – | –
– | – | – | < 5 | < 75 | > 50 | COc1cncc([C@H]2CC[C@H](C)CN2C(=O)C(=O)Nc2cnc(N)c3cn[nH]c23)c1 (racemic) [Compound 261, N-(4-Amino-1H-pyrazolo[4,3-c]pyridin-7-yl)-2-oxo-2-[rac-(2R,5S)-2-(5-methoxy-3-pyridyl)-5-methyl-1-piperidyl]acetamide] | – | < 100 | A (“A” indicates an IC50 ratio greater than or equal to 30 fold) | –
– | – | – | 5 to 50 | 75 to 125 | > 50 | C[C@@H]1CCCN(C(=O)C(=O)Nc2cnc(N)c3cn[nH]c23)[C@H]1c1ccccc1 (racemic) [Compound 258, N-(4-Amino-1H-pyrazolo[4,3-c]pyridin-7-yl)-2-(3-methyl-2-phenyl-1-piperidyl)-2-oxo-acetamide] | – | 100 to 1000 | A (“A” indicates an IC50 ratio greater than or equal to 30 fold) | –
5 to 50 | > 125 | > 50 | – | – | – | C[C@H]1CC[C@H](c2ccc3ccc(C4CCN(C)CC4)nc3c2)N(C(=O)C(=O)Nc2ccn3ccnc3c2)C1 [Compound 170, N-(imidazo[1,2-a]pyridin-7-yl)-2-((2R,5S)-5-methyl-2-(2-(1-methylpiperidin-4-yl)quinolin-7-yl)piperidin-1-yl)-2-oxoacetamide] | A (“A” indicates an IC50 ratio greater than or equal to 30 fold) | < 100 | – | –
< 5 | < 75 | > 50 | – | – | – | C[C@H]1CC[C@H](c2ccc3cc(C#N)c(C4CCN(C)CC4)nc3c2)N(C(=O)C(=O)Nc2cncc3cn[nH]c23)C1 [Compound 176, 2-((2R,5S)-2-(3-cyano-2-(1-methylpiperidin-4-yl)quinolin-7-yl)-5-methylpiperidin-1-yl)-2-oxo-N-(1H-pyrazolo[4,3-c]pyridin-7-yl)acetamide] | B (“B” indicates an IC50 ratio greater than or equal to 15 fold but lower than 30 fold) | < 100 | – | –
5 to 50 | < 75 | > 50 | – | – | – | C[C@H]1CC[C@H](c2cccc(C(F)(F)F)c2)N(C(=O)C(=O)Nc2cnc(N)c3cn[nH]c23)C1 [Compound 138, N-(4-amino-1H-pyrazolo[4,3-c]pyridin-7-yl)-2-((2R,5S)-5-methyl-2-(3-(trifluoromethyl)phenyl)piperidin-1-yl)-2-oxoacetamide] | A (“A” indicates an IC50 ratio greater than or equal to 30 fold) | < 100 | – | –
– | – | – | < 5 | < 75 | > 50 | CC[C@@H]1CC[C@@H](CC)N(C(=O)C(=O)Nc2cnc(N)c3cn[nH]c23)C1 (racemic) [Compound 233] | – | < 100 | B (“B” indicates an IC50 ratio greater than or equal to 15 fold but lower than 30 fold) | –
5 to 50 | < 75 | > 50 | – | – | – | C[C@H]1CC[C@H](c2ccc3sc([C@@H](C)CN(C)C)nc3c2)N(C(=O)C(=O)Nc2cncc3c(N)nccc23)C1 (relative stereo) [Compound 76, N-(8-amino-2,7-naphthyridin-4-yl)-2-((2R,5S)-2-(2-((S)-1-(dimethylamino)propan-2-yl)benzo[d]thiazol-5-yl)-5-methylpiperidin-1-yl)-2-oxoacetamide] | A (“A” indicates an IC50 ratio greater than or equal to 30 fold) | < 100 | – | –
< 5 | < 75 | – | – | – | – | C[C@H]1CC[C@H](c2ccc3scnc3c2)N(C(=O)C(=O)Nc2cnc(N)c3cn[nH]c23)C1 [Compound 17, N-(4-amino-1H-pyrazolo[4,3-c]pyridin-7-yl)-2-[(2R,5S)-2-(1,3-benzothiazol-5-yl)-5-methyl-1-piperidyl]-2-oxo-acetamide] | – | < 100 | – | 5 to 50
< 5 | < 75 | > 50 | – | – | – | C[C@H]1CC[C@H](c2ccccc2)N(C(=O)C(=O)Nc2cnc(N)c3c2cnn3C)C1 [Compound 194, N-(7-amino-1-methyl-1H-pyrazolo[3,4-c]pyridin-4-yl)-2-((2R,5S)-5-methyl-2-phenylpiperidin-1-yl)-2-oxoacetamide] | B (“B” indicates an IC50 ratio greater than or equal to 15 fold but lower than 30 fold) | < 100 | – | –
– | – | – | < 5 | < 75 | 5 to 50 | C[C@H]1CC[C@H](c2ccnc(OC3CC3)c2)N(C(=O)C(=O)Nc2cnc(N)c3cn[nH]c23)C1 (racemic) [Compound 247, N-(4-Amino-2H-pyrazolo[4,3-c]pyridin-7-yl)-2-oxo-2-[rac-(2R,5S)-2-[2-(cyclopropoxy)-4-pyridyl]-5-methyl-1-piperidyl]acetamide] | – | < 100 | B (“B” indicates an IC50 ratio greater than or equal to 15 fold but lower than 30 fold) | –

SMILES | IC50 [1, 3] [nM] | IC90 [1, 4] [nM] | IC50 [2, 5] [nM] | IC50 [1, 6] [nM] | IC90 [1, 7] [nM] | IC50 [2, 8] [nM] | Hap1 MTAP intact/deleted ratio ([1]; SDMA in-cell western) | IC50 (MTAP-deleted cell line) [nM] | Hap1 MTAP intact/deleted ratio ([1]; SDMA in-cell western assay) | IC50 [2, 9] [nM]
C[C@H]1CC[C@H](c2ccc3scnc3c2)N(C(=O)C(=O)Nc2cnc(N)c3[nH]ncc23)C1 [Compound 174, N-(7-amino-1H-pyrazolo[3,4-c]pyridin-4-yl)-2-((2R,5S)-2-(benzo[d]thiazol-5-yl)-5-methylpiperidin-1-yl)-2-oxoacetamide] | < 5 | < 75 | – | – | – | – | C (“C” indicates an IC50 ratio of less than 15 fold) | < 100 | – | 5 to 50
